Measurements taken from patent US10681909B2, “Herbicidal triazoles” (FMC Corporation, priority 2014, dated 2020).

Legend:
[1] = tested on: chickweed; assay: Test C postemergence; format: in vivo, Stellaria media
Summary of the method: (§1)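 Test chemicals in a non-phytotoxic solvent mixture with surfactant were applied to pots of plants at 2 to 18 cm (1- to 4-leaf stage) for postemergence treatment, grown in a peat-based medium with vermiculite, starter nutrients and dolomitic limestone. Preemergence treatment was to seeds freshly planted in loam soil mixed with sand.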

[2] = tested on: nutsedge, yellow; assay: Test C postemergence; format: in vivo, Cyperus esculentus
Summary of the method: as §1

[3] = tested on: barnyardgrass; assay: Test C postemergence; format: in vivo, Echinochloa crus-galli
Summary of the method: as §1

[4] = tested on: foxtail, giant; assay: Test C postemergence; format: in vivo, Setaria faberii
Summary of the method: as §1

[5] = tested on: oilseed rape; assay: Test C postemergence; format: in vivo, Brassica napus
Summary of the method: as §1

[6] = tested on: lambsquarters; assay: Test C postemergence; format: in vivo, Chenopodium album
Summary of the method: as §1

[7] = tested on: wheat (winter wheat); assay: Test C postemergence; format: in vivo, Triticum aestivum
Summary of the method: as §1

[8] = tested on: wheat; assay: Test A postemergence; format: in vivo, Triticum aestivum; details: Triticum aestivum, post-emergence, 240 h, 0 to 100 scale (0 no effect, 100 complete control), approx. 10 d, read-out: Plant response rating, Wheat
Summary of the method: (§2)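 For preemergence, seeds were sown in a loam soil-sand blend and given a directed soil spray of test chemical in a non-phytotoxic solvent mixture with surfactant. For postemergence, plants in pots of the same blend were sprayed with the same formulation at the one- to two-leaf stage, 2 to 10 cm tall.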

[9] = tested on: galium; assay: Test C postemergence; format: in vivo, Galium aparine
Summary of the method: as §1

[10] = tested on: oat, wild; assay: Test C postemergence; format: in vivo, Avena fatua
Summary of the method: as §1

[11] = tested on: sedge, umbrella; assay: Test B flooded paddy test; format: in vivo, Cyperus difformis; details: Cyperus difformis, 360 h, 125 g ai/ha, applied to paddy water at 2-leaf stage, visual rating after 13 to 15 d, scale 0 (no effect) to 100 (complete control), read-out: Plant response rating, Sedge, Umbrella, Flood
Summary of the method: (§3)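 Pots were flooded to 3 cm above the soil at treatment, and compounds were applied directly into the paddy water. That depth was held throughout. After 13 to 15 d in a greenhouse, plants were rated visually against untreated controls.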

[12] = tested on: pigweed; assay: Test A postemergence; format: in vivo, Amaranthus retroflexus; details: Amaranthus retroflexus, post-emergence, 240 h, 0 to 100 scale (0 no effect, 100 complete control), approx. 10 d, read-out: Plant response rating, Pigweed
Summary of the method: as §2

[13] = tested on: blackgrass; assay: Test C postemergence; format: in vivo, Alopecurus myosuroides
Summary of the method: as §1

[14] = tested on: barnyardgrass; assay: Test B flooded paddy test; format: in vivo, Echinochloa crus-galli; details: Echinochloa crus-galli, 360 h, 125 g ai/ha, applied to paddy water at 2-leaf stage, visual rating after 13 to 15 d, scale 0 (no effect) to 100 (complete control), read-out: Plant response rating, Barnyardgrass, Flood
Summary of the method: as §3

[15] = tested on: ryegrass, Italian; assay: Test C postemergence; format: in vivo, Lolium multiflorum
Summary of the method: as §1

[16] = tested on: foxtail, giant; assay: Test A postemergence; format: in vivo, Setaria faberii; details: Setaria faberi, post-emergence, 240 h, 0 to 100 scale (0 no effect, 100 complete control), approx. 10 d, read-out: Plant response rating, Foxtail, Giant
Summary of the method: as §2

[17] = tested on: pigweed; assay: Test A preemergence; format: in vivo, Amaranthus retroflexus; details: Amaranthus retroflexus, pre-emergence, 240 h, 0 to 100 scale (0 no effect, 100 complete control), read-out: Plant response rating, Pigweed
Summary of the method: as §2

[18] = tested on: waterhemp; assay: Test C postemergence; format: in vivo, Amaranthus rudis
Summary of the method: as §1

[19] = tested on: corn; assay: Test C postemergence; format: in vivo, Zea mays
Summary of the method: as §1

[20] = tested on: soybean; assay: Test C postemergence; format: in vivo, Glycine max
Summary of the method: as §1

SMILES: CCc1nc(-c2ccc(C(F)(F)F)cc2)nn1Cc1ccnc(C(F)(F)F)c1 [Compound 1, 4-[[5-ethyl-3-[4-(trifluoromethyl)phenyl]-1H-1,2,4-triazol-1-yl]methyl]-2-(trifluoromethyl)pyridine]
- Plant response rating (scale of 0 to 100 where 0 is no effect and 100 is complete control) ([1]; 31 g ai/ha): 60
- Plant response rating (scale of 0 to 100 where 0 is no effect and 100 is complete control) ([1]; 62 g ai/ha): 85
- Plant response rating (scale of 0 to 100 where 0 is no effect and 100 is complete control) ([1]; 125 g ai/ha): 85
- Plant response rating (scale of 0 to 100 where 0 is no effect and 100 is complete control) ([1]; 250 g ai/ha): 95
- Plant response rating (scale of 0 to 100 where 0 is no effect and 100 is complete control) ([2]; 31 g ai/ha): 5
- Plant response rating (scale of 0 to 100 where 0 is no effect and 100 is complete control) ([2]; 62 g ai/ha): 5
- Plant response rating (scale of 0 to 100 where 0 is no effect and 100 is complete control) ([2]; 125 g ai/ha): 5
- Plant response rating (scale of 0 to 100 where 0 is no effect and 100 is complete control) ([2]; 250 g ai/ha): 10
- Plant response rating (scale of 0 to 100 where 0 is no effect and 100 is complete control) ([3]; 31 g ai/ha): 10
- Plant response rating (scale of 0 to 100 where 0 is no effect and 100 is complete control) ([3]; 62 g ai/ha): 15
- Plant response rating (scale of 0 to 100 where 0 is no effect and 100 is complete control) ([3]; 125 g ai/ha): 15
- Plant response rating (scale of 0 to 100 where 0 is no effect and 100 is complete control) ([3]; 250 g ai/ha): 50
- Plant response rating (scale of 0 to 100 where 0 is no effect and 100 is complete control) ([4]; 31 g ai/ha): 35
- Plant response rating (scale of 0 to 100 where 0 is no effect and 100 is complete control) ([4]; 62 g ai/ha): 35
- Plant response rating (scale of 0 to 100 where 0 is no effect and 100 is complete control) ([4]; 125 g ai/ha): 55
- Plant response rating (scale of 0 to 100 where 0 is no effect and 100 is complete control) ([4]; 250 g ai/ha): 55
- Plant response rating (scale of 0 to 100 where 0 is no effect and 100 is complete control) ([5]; Oilsee Rape, 250 g ai/ha): 90
- Plant response rating (scale of 0 to 100 where 0 is no effect and 100 is complete control) ([5]; Oilseed Rape, 31 g ai/ha): 50
- Plant response rating (scale of 0 to 100 where 0 is no effect and 100 is complete control) ([5]; Oilseed Rape, 62 g ai/ha): 70
- Plant response rating (scale of 0 to 100 where 0 is no effect and 100 is complete control) ([5]; Oilseed Rape, 125 g ai/ha): 80
- Plant response rating (scale of 0 to 100 where 0 is no effect and 100 is complete control) ([6]; 31 g ai/ha): 70
- Plant response rating (scale of 0 to 100 where 0 is no effect and 100 is complete control) ([6]; 62 g ai/ha): 70
- Plant response rating (scale of 0 to 100 where 0 is no effect and 100 is complete control) ([6]; 125 g ai/ha): 75
- Plant response rating (scale of 0 to 100 where 0 is no effect and 100 is complete control) ([6]; 250 g ai/ha): 80
- Plant response rating (scale of 0 to 100 where 0 is no effect and 100 is complete control) ([7]; 31 g ai/ha): 10
- Plant response rating (scale of 0 to 100 where 0 is no effect and 100 is complete control) ([7]; 62 g ai/ha): 10
- Plant response rating (scale of 0 to 100 where 0 is no effect and 100 is complete control) ([7]; 125 g ai/ha): 15
- Plant response rating (scale of 0 to 100 where 0 is no effect and 100 is complete control) ([7]; 250 g ai/ha): 20
- plant injury at 125 g/ha ([8]; 125 g ai/ha): 30%
- plant injury at 500 g/ha ([8]; 500 g ai/ha): 60%
- Plant response rating (scale of 0 to 100 where 0 is no effect and 100 is complete control) ([9]; 31 g ai/ha): 80
- Plant response rating (scale of 0 to 100 where 0 is no effect and 100 is complete control) ([9]; 62 g ai/ha): 80
- Plant response rating (scale of 0 to 100 where 0 is no effect and 100 is complete control) ([9]; 125 g ai/ha): 90
- Plant response rating (scale of 0 to 100 where 0 is no effect and 100 is complete control) ([9]; 250 g ai/ha): 90
- Plant response rating (scale of 0 to 100 where 0 is no effect and 100 is complete control) ([10]; 31 g ai/ha): 5
- Plant response rating (scale of 0 to 100 where 0 is no effect and 100 is complete control) ([10]; 62 g ai/ha): 10
- Plant response rating (scale of 0 to 100 where 0 is no effect and 100 is complete control) ([10]; 125 g ai/ha): 15
- Plant response rating (scale of 0 to 100 where 0 is no effect and 100 is complete control) ([10]; 250 g ai/ha): 25
- pest or weed control at 125 g/ha [11]: 75%
- pest or weed control at 125 g/ha ([12]; 125 g ai/ha): 100%
- pest or weed control at 500 g/ha ([12]; 500 g ai/ha): 100%
- Plant response rating (scale of 0 to 100 where 0 is no effect and 100 is complete control) ([13]; 31 g ai/ha): 5
- Plant response rating (scale of 0 to 100 where 0 is no effect and 100 is complete control) ([13]; 62 g ai/ha): 5
- Plant response rating (scale of 0 to 100 where 0 is no effect and 100 is complete control) ([13]; 125 g ai/ha): 15
- Plant response rating (scale of 0 to 100 where 0 is no effect and 100 is complete control) ([13]; 250 g ai/ha): 35
- pest or weed control at 125 g/ha [14]: 40%
- Plant response rating (scale of 0 to 100 where 0 is no effect and 100 is complete control) ([15]; 31 g ai/ha): 5
- Plant response rating (scale of 0 to 100 where 0 is no effect and 100 is complete control) ([15]; 62 g ai/ha): 5
- Plant response rating (scale of 0 to 100 where 0 is no effect and 100 is complete control) ([15]; 125 g ai/ha): 5
- Plant response rating (scale of 0 to 100 where 0 is no effect and 100 is complete control) ([15]; 250 g ai/ha): 5
- pest or weed control at 125 g/ha ([16]; 125 g ai/ha): 90%
- pest or weed control at 500 g/ha ([16]; 500 g ai/ha): 100%
- pest or weed control at 125 g/ha ([17]; 125 g ai/ha): 100%
- pest or weed control at 500 g/ha ([17]; 500 g ai/ha, approx. 10 d): 100%
- Plant response rating (scale of 0 to 100 where 0 is no effect and 100 is complete control) ([18]; 31 g ai/ha): 85
- Plant response rating (scale of 0 to 100 where 0 is no effect and 100 is complete control) ([18]; 62 g ai/ha): 85
- Plant response rating (scale of 0 to 100 where 0 is no effect and 100 is complete control) ([18]; 125 g ai/ha): 90
- Plant response rating (scale of 0 to 100 where 0 is no effect and 100 is complete control) ([18]; 250 g ai/ha): 90
- Plant response rating (scale of 0 to 100 where 0 is no effect and 100 is complete control) ([19]; 31 g ai/ha): 15
- Plant response rating (scale of 0 to 100 where 0 is no effect and 100 is complete control) ([19]; 62 g ai/ha): 15
- Plant response rating (scale of 0 to 100 where 0 is no effect and 100 is complete control) ([19]; 125 g ai/ha): 20
- Plant response rating (scale of 0 to 100 where 0 is no effect and 100 is complete control) ([19]; 250 g ai/ha): 20
- Plant response rating (scale of 0 to 100 where 0 is no effect and 100 is complete control) ([20]; 31 g ai/ha): 20
- Plant response rating (scale of 0 to 100 where 0 is no effect and 100 is complete control) ([20]; 62 g ai/ha): 35
- Plant response rating (scale of 0 to 100 where 0 is no effect and 100 is complete control) ([20]; 125 g ai/ha): 50
- Plant response rating (scale of 0 to 100 where 0 is no effect and 100 is complete control) ([20]; 250 g ai/ha): 50
